These results are taken from the RepoRT retention time repository (doi:10.1002/minf.201400016).

SMILES strings stand for the structures.

The nature of the data set: RP, Waters ACQUITY UPLC HSS T3, 150 × 2.1 mm, 1.7 µm, 30 °C, 0.4 mL/min, estimated dead time 0.83 min; A: water + 0.2% formic acid; B: 2% water + 98% acetonitrile + 0.2% formic acid; gradient (min/%B) 0/0 2.5/0 7.5/10 10/100 12/100 18/0 25/0. The note with it: stereoisomer not certain.
In the case of `O=C(O)C1CCCN1` (configuration not stated) [proline], the LC retention time was 1.73 min.
As for `O=C(O)c1cccc(O)c1` [3-hydroxybenzoic acid], the figure is 9.31 min; as for `COc1cc(C(=O)O)ccc1O` [vanillic acid], 9.27 min.
With `O=c1c(O)c(-c2ccc(O)cc2)oc2cc(O)cc(O)c12` [kaempferol], the LC retention time is 9.98 min.
Consider `Cn1c[n+](C2OC(CO)C(O)C2O)c2nc(N)[nH]c(=O)c21` (configuration not stated) [7-methylguanosine], for which the LC retention time is 5.75 min.
On to `c1ccc2[nH]ccc2c1` [1H-indole], for which the LC retention time is 10.2 min.
Take `NC(=O)NC1NC(=O)NC1=O` (configuration not stated) [allantoin]: the LC retention time was 1.63 min.
In the case of `Nc1cccc(C(=O)O)c1` [3-aminobenzoic acid] it was 5.54 min.
As for `C[n+]1cccc(C(=O)[O-])c1` [N-methylnicotinate], the figure is 1.73 min; as for `Nc1ccnc(=O)[nH]1` [cytosine], 1.62 min; as for `NCCCCCCCCN` [1-8-diaminooctane], 1.74 min.
As to `Cn1cc(CC(N)C(=O)O)c2ccccc21` (configuration not stated) [1-methyltryptophan], the LC retention time was 9.17 min.
In the case of `NC(=O)NCCCC(N)C(=O)O` (configuration not stated) [citrulline] it was 1.55 min; in that of `NCCCC[C@H](N)C(=O)O` [L-lysine], 1.23 min.
As for `CCC(C)C(=O)C(=O)O` (configuration not stated) [3-methyl-2-oxovaleric acid], the figure is 9.23 min; as for `NC(CCCC(=O)O)C(=O)O` (configuration not stated) [2-aminoadipic acid], 1.73 min; as for `O=C[C@@H](O)[C@H](O)[C@H](O)[C@H](O)CO` [D-altrose], 1.55 min.
In the case of `CCC=CCC1C(=O)CCC1CC(=O)OC` (configuration not stated) [methyl jasmonate], the LC retention time is 10.6 min.
Take `O=c1cc(-c2ccc(O)cc2)oc2cc(O)cc(O)c12` [apigenin]: the LC retention time is 9.92 min.
Consider `CC(=CCNc1ncnc2c1ncn2C1OC(CO)C(O)C1O)CO` (stereo not drawn) [9-ribosyl-trans-zeatin], for which the LC retention time was 8.91 min.
`CSC[C@H]1O[C@@H](n2cnc3c(N)ncnc32)[C@H](O)[C@@H]1O` [5'-S-methyl-5'-thioadenosine]: the LC retention time is 8.32 min.
Regarding `CCCCCCCCCCCCCCCC[C@@H](O)C(=O)O` [(R)-2-hydroxystearic acid], the LC retention time was 12.4 min.
As for `NCCSCC(N)C(=O)O` [L-thialysine], the LC retention time was 1.26 min.
In the case of `CC(O)(CC(=O)O)C(=O)O` (configuration not stated) [citramalic acid], the LC retention time was 5.17 min.
As for `C[N+](C)(C)CC(=O)[O-]` [glycine betaine], the LC retention time is 1.55 min.
As to `O=C(COP(=O)(O)O)[C@@H](O)[C@H](O)[C@H](O)CO` [D-fructose 1-phosphate], the LC retention time is 1.49 min.
In the case of `O=c1ccc2cc(OC3OC(CO)C(O)C(O)C3O)c(O)cc2o1` (configuration not stated) [esculin hydrate], the LC retention time is 8.95 min.
For the compound `CC(C)CC(=O)C(=O)O` [4-methyl-2-oxopentanoic acid], the LC retention time was 9.39 min.
In the case of `C=C1C(=O)OC2C1CCC(=C)C1CCC(=C)C12` (configuration not stated) [dehydrocostus lactone], the LC retention time is 10.9 min.
As for `Cc1cc(O)c2c(c1)C(=O)c1cc(O)cc(O)c1C2=O` [emodin], the LC retention time was 10.7 min.
On to `COc1cc(C=O)ccc1O` [vanillin], for which the LC retention time is 9.53 min.
Take `COc1ccc2ncccc2c1` [6-methoxyquinoline]: the LC retention time was 8.57 min.
For `Oc1cccc2cccnc12` [quinolin-8-ol], the LC retention time was 7.14 min.
As to `O=C(O)CCCCC(=O)O` [adipic acid], the LC retention time was 8.14 min.
As to `NC(=O)c1cccnc1` [nicotinamide], the LC retention time is 3.33 min.
In the case of `O=c1c(O)c(-c2ccc(O)c(O)c2)oc2cc(O)cc(O)c12` [quercetin], the LC retention time was 9.79 min.
On to `O=C(O)C=Cc1cccc(O)c1` [3-coumaric acid], for which the LC retention time was 9.54 min.
As for `Cc1cc(Cl)ccc1OCC(=O)O` [(4-chloro-2-methylphenoxy)acetic acid], the LC retention time is 10.3 min.
Turning to `CC(=CCNc1ncnc2nc[nH]c12)CO` [trans-zeatin], the LC retention time is 7.57 min.
In the case of `O=C(O)Cn1ccc2ccccc21` [1H-indole-1-acetic acid], the LC retention time is 9.71 min.
`OCC1OC(OCC2OC(O)C(O)C(O)C2O)C(O)C(O)C1O` (configuration not stated) [gentiobiose]: the LC retention time was 1.73 min.
For `O=Cc1ccc(O)cc1` [4-hydroxybenzaldehyde], the LC retention time is 9.4 min.
